Assay [1] has as its target T1, Glycogen phosphorylase, muscle form (Oryctolagus cuniculus) (UniProt P00489).
T1 sequence (whole entry): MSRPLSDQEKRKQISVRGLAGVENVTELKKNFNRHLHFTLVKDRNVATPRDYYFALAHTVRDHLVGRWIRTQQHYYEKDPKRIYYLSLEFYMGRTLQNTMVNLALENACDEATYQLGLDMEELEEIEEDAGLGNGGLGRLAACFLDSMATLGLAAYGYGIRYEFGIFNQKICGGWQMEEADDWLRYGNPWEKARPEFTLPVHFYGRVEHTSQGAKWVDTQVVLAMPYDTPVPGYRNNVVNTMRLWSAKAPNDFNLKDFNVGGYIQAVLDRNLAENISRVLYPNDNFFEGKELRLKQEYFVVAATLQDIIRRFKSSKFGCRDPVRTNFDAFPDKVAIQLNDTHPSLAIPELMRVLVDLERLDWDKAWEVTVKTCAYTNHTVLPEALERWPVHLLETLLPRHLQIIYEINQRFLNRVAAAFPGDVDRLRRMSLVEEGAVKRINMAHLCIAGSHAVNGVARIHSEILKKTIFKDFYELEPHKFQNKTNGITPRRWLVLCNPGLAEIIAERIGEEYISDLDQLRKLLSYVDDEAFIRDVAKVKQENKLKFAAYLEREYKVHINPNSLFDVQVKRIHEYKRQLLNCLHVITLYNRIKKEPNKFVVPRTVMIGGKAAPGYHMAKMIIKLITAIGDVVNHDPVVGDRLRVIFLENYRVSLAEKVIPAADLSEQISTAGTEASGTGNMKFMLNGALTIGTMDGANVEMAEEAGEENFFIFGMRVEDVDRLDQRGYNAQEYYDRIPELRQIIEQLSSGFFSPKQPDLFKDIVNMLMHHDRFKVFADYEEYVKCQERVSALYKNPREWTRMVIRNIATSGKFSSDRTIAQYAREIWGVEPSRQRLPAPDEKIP
The assay is described as follows: Inhibition of rabbit muscle glycogen phosphorylase b at 625 uM.

Assay [2] concerns the target T2, Glycogen phosphorylase, muscle form (Oryctolagus cuniculus, UniProt P00489).
T2 sequence (P00489 whole entry): T1 sequence (whole entry)

The source made the active and inactive calls. No cut-off for these calls is given here. Some results are limits rather than exact numbers.

With `OC[C@H]1O[C@@H](c2nnc(-c3ccc(O)cc3)o2)[C@H](O)[C@@H](O)[C@@H]1O`, in assay [1], the inhibition result is “inactive”. Turning to `OC[C@H]1O[C@@H](c2nc3ccccc3s2)[C@H](O)[C@@H](O)[C@@H]1O`, the Ki in assay [2] was 76 µM. `Nc1ccc(-c2nnc([C@@H]3O[C@H](CO)[C@@H](O)[C@H](O)[C@H]3O)o2)cc1`: the inhibition entry in assay [1] is “inactive”. `OC[C@H]1O[C@@H](c2nc(-c3ccc(OCc4ccccc4)cc3)no2)[C@H](O)[C@@H](O)[C@@H]1O`: the inhibition entry in assay [1] was “inactive”. Regarding `OC[C@H]1O[C@@H](c2nc(-c3ccccc3)no2)[C@H](O)[C@@H](O)[C@@H]1O`, the affinity in assay [2] corresponds to a Ki of 64 µM. Consider `OC[C@H]1O[C@@H](c2noc(-c3ccc4ccccc4c3)n2)[C@H](O)[C@@H](O)[C@@H]1O`, for which the affinity in assay [2], expressed as Ki, was 38 µM. Take `O=C(NC(=O)c1ccc([N+](=O)[O-])cc1)N[C@@H]1O[C@H](CO)[C@@H](O)[C@H](O)[C@H]1O`: affinity in assay [2] was put at a Ki of 3.3 µM.

As to `Cc1nc([C@@H]2O[C@H](CO)[C@@H](O)[C@H](O)[C@H]2O)no1`, the inhibition result in assay [1] was “inactive”. `OC[C@H]1O[C@@H](c2nnc(-c3ccccc3)o2)[C@H](O)[C@@H](O)[C@@H]1O` showed an inhibition in assay [1] of 10%. For the molecule `OC[C@H]1O[C@@H](c2nnc(-c3ccc4ccccc4c3)o2)[C@H](O)[C@@H](O)[C@@H]1O`, in assay [1], the inhibition is 10%. Take `OC[C@H]1O[C@@H](c2nc(-c3ccc(O)cc3)no2)[C@H](O)[C@@H](O)[C@@H]1O`: in assay [2], the inhibition constant (Ki) was determined as 19.4 µM. Take `OC[C@H]1O[C@@H](c2nc(-c3cccc4ccccc34)no2)[C@H](O)[C@@H](O)[C@@H]1O`: the inhibitory constant (Ki) in assay [2] was found to be 19 µM. Molecule `COc1ccc(-c2noc([C@@H]3O[C@H](CO)[C@@H](O)[C@H](O)[C@H]3O)n2)cc1` yielded a Ki in assay [2] of 20.4 µM.

Regarding `Cc1ccc(-c2noc([C@@H]3O[C@H](CO)[C@@H](O)[C@H](O)[C@H]3O)n2)cc1`, the affinity in assay [2], expressed as Ki, was 8.8 µM. As to `Nc1ccc(C(=O)NC(=O)N[C@@H]2O[C@H](CO)[C@@H](O)[C@H](O)[C@H]2O)cc1`, the affinity in assay [2], expressed as Ki, was 6 µM. In assay [2], `Cc1ccc(-c2nc([C@@H]3O[C@H](CO)[C@@H](O)[C@H](O)[C@H]3O)no2)cc1` had a half-inhibitory concentration (IC50) of 350 µM.

For `Nc1ccc(-c2noc([C@@H]3O[C@H](CO)[C@@H](O)[C@H](O)[C@H]3O)n2)cc1`, the inhibition in assay [1] was determined as 20%. In the case of `Cc1ccc(C(=O)NC(=O)N[C@@H]2O[C@H](CO)[C@@H](O)[C@H](O)[C@H]2O)cc1`, in assay [2], the inhibition constant (Ki) worked out at 2.3 µM.

In assay [2], `OC[C@H]1O[C@@H](c2nc(-c3ccc4ccccc4c3)no2)[C@H](O)[C@@H](O)[C@@H]1O` yielded a Ki of 2.4 µM. With `O=[N+]([O-])c1ccc(-c2noc([C@@H]3O[C@H](CO)[C@@H](O)[C@H](O)[C@H]3O)n2)cc1`, the IC50 in assay [2] worked out at 650 µM. The molecule `O=C(NC(=O)c1cccc2ccccc12)N[C@@H]1O[C@H](CO)[C@@H](O)[C@H](O)[C@H]1O` had a Ki in assay [2] of 15 µM. The molecule `O=C(NC(=O)c1ccc(O)cc1)N[C@@H]1O[C@H](CO)[C@@H](O)[C@H](O)[C@H]1O` displayed an inhibition constant Ki in assay [2] of 6.3 µM. Regarding `Cc1nnc(C2O[C@H](CO)[C@@H](O)[C@H](O)[C@H]2O)o1` (single isomer, unassigned), the Ki in assay [2] was found to be 145 µM. With `O=[N+]([O-])c1ccc(-c2nc([C@@H]3O[C@H](CO)[C@@H](O)[C@H](O)[C@H]3O)no2)cc1`, the inhibition result in assay [1] was “inactive”. Turning to `Cc1ccc(-c2nnc([C@@H]3O[C@H](CO)[C@@H](O)[C@H](O)[C@H]3O)o2)cc1`, the inhibition entry in assay [1] is “inactive”. In the case of `OC[C@H]1O[C@@H](c2noc(-c3ccccc3)n2)[C@H](O)[C@@H](O)[C@@H]1O`, the inhibition in assay [1] worked out at 10%. With `OC[C@H]1O[C@@H](c2nnc(-c3cccc4ccccc34)o2)[C@H](O)[C@@H](O)[C@@H]1O`, the inhibition in assay [1] came out at 10%.

Turning to `COc1ccc(-c2nc([C@@H]3O[C@H](CO)[C@@H](O)[C@H](O)[C@H]3O)no2)cc1`, in assay [2], half-maximal inhibition (IC50) was put at 550 µM. In assay [2], `Cc1ccc(C(=O)N[C@@H]2O[C@H](CO)[C@@H](O)[C@H](O)[C@H]2O)cc1` yielded a 50% inhibitory concentration (IC50) of 4500 µM. In assay [2], `OC[C@H]1O[C@@H](c2nc(-c3ccc4c(c3)OCO4)no2)[C@H](O)[C@@H](O)[C@@H]1O` returned an IC50 above 625 µM. Regarding `O=[N+]([O-])c1ccc(-c2nnc([C@@H]3O[C@H](CO)[C@@H](O)[C@H](O)[C@H]3O)o2)cc1`, the inhibition result in assay [1] is “inactive”. With `COc1ccc(-c2nnc([C@@H]3O[C@H](CO)[C@@H](O)[C@H](O)[C@H]3O)o2)cc1`, the inhibition entry in assay [1] is “inactive”. As for `OC[C@H]1O[C@@H](c2noc(-c3cccc4ccccc34)n2)[C@H](O)[C@@H](O)[C@@H]1O`, the inhibition result in assay [1] was “inactive”.

For the origin of these results see ChEMBL document CHEMBL1152938, “Synthesis and structure-activity relationships of C-glycosylated oxadiazoles as inhibitors of glycogen phosphorylase” (Bioorg Med Chem, 2009).
